Test results from ChEMBL document CHEMBL1201862, “PubChem BioAssay data set” (2004).
Calls of active or inactive are those of the source.

Assays:
[1] = cells; assay type: functional, cell-based
[2] = loss of viability in HepG2 cells – cell-based, CellTiter-Glo, cherry-picked, cytotoxicity control for Shn3 inhibitor project, dose response (AID 624134); assay type: functional
[3] = target: Neurotensin receptor type 1 (Homo sapiens, UniProt P30989); assay type: functional;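 also: Image-based confirmatory dose-response assay measuring agonist activity at NTR1; NTR1-expressing U2OS osteosarcoma cells imaged for beta-arrestin GFP spot formation; agonist potency where compounds increase beta-arrestin recruitment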
[4] = target: Beta-galactosidase (Escherichia coli, UniProt Q8VNN2); assay: PubChem AID 485352; assay type: functional
[5] = reduction of Shn3 3'UTR-driven luciferase in osteoblasts – cell-based, Clone20 osteoblasts, firefly luciferase, cherry-picked, dose response (AID 624132); assay type: functional;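 also: firefly luciferase luminescence from reporter carrying the Shn3 3'UTR in osteoblasts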
[6] = target: T1, Type-1 angiotensin II receptor (Homo sapiens, UniProt P30556); assay: antagonism of angiotensin II type 1 receptor – cell-based, uHTS hits, selectivity assay for APJ receptor antagonist project, dose response (AID 463214); assay type: functional;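 also: antagonist potency against angiotensin II stimulated AT1 response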
T1 sequence (P30556 whole entry): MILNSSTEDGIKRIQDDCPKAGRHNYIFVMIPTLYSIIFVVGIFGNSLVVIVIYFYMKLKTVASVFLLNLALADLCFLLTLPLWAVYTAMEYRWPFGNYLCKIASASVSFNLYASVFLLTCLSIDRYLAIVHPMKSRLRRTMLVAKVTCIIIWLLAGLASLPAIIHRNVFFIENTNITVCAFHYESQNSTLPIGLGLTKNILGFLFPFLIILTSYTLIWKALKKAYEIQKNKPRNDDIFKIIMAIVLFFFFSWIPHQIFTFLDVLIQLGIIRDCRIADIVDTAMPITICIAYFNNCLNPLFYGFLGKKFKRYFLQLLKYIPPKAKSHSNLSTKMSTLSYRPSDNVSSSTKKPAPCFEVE

[7] = non-specific 3'UTR reporter inhibition in Clone20-Shn3RL – cell-based, Renilla luciferase, cherry-picked, counter-screen for Shn3 inhibitor project, dose response (AID 624133); assay type: functional
[8] = cells; assay type: functional, cell-based; remark: listed apart in the source
[9] = target: T2, Heat shock factor protein 1 (Mus musculus, UniProt P38532); assay: decrease of HSF1-responsive luciferase luminescence – cell-based, NIH3T3, dose retest, confirmation (AID 2382); assay type: functional;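 also: NIH3T3 fibroblasts with HSF1-driven luciferase reporter stressed by proteasome inhibitor MG132; luminescence from HSF1-driven luciferase expression after 8 hours of MG132 stress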
T2 sequence (P38532 whole entry): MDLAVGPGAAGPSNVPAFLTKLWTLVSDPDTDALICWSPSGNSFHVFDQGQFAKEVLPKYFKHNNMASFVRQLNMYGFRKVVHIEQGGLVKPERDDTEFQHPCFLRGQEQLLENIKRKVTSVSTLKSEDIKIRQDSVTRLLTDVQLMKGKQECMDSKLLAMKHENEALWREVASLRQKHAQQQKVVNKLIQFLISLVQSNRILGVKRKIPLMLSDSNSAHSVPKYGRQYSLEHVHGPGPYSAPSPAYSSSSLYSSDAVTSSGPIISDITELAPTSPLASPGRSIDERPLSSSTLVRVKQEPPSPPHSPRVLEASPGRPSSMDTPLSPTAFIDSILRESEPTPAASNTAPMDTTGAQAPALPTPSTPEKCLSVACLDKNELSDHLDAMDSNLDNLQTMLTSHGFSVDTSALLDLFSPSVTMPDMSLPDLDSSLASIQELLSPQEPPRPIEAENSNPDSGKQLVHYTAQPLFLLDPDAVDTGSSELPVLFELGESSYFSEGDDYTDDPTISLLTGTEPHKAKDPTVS

[10] = target: T3, Sentrin-specific protease 8 (Homo sapiens, UniProt Q96LD8); assay type: functional;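 also: luminescence read-out of SENP8 inhibition, dose-response confirmation following an ultra-high-throughput screen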
T3 sequence (Q96LD8 whole entry): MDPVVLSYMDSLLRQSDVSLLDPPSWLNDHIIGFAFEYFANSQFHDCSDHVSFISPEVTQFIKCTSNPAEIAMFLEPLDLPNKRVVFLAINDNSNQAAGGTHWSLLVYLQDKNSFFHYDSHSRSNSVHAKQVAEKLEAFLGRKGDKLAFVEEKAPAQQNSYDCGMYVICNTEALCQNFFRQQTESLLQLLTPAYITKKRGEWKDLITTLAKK

[11] = target: Metabotropic glutamate receptor 4 (Rattus norvegicus, UniProt P31423); assay: Modulation of the Metabotropic Glutamate Receptor mGluR4: Rat PAM Potency. [Related pubchem assays (depositor defined):AID2437, AID2807]; assay type: functional
[12] = target: T4, Sentrin-specific protease 6 (Homo sapiens, UniProt Q9GZR1); assay type: functional;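 also: Luminescence-based dose-response confirmatory assay of SENP6 inhibition, following up an ultra-high-throughput screen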
T4 sequence (Q9GZR1 whole entry): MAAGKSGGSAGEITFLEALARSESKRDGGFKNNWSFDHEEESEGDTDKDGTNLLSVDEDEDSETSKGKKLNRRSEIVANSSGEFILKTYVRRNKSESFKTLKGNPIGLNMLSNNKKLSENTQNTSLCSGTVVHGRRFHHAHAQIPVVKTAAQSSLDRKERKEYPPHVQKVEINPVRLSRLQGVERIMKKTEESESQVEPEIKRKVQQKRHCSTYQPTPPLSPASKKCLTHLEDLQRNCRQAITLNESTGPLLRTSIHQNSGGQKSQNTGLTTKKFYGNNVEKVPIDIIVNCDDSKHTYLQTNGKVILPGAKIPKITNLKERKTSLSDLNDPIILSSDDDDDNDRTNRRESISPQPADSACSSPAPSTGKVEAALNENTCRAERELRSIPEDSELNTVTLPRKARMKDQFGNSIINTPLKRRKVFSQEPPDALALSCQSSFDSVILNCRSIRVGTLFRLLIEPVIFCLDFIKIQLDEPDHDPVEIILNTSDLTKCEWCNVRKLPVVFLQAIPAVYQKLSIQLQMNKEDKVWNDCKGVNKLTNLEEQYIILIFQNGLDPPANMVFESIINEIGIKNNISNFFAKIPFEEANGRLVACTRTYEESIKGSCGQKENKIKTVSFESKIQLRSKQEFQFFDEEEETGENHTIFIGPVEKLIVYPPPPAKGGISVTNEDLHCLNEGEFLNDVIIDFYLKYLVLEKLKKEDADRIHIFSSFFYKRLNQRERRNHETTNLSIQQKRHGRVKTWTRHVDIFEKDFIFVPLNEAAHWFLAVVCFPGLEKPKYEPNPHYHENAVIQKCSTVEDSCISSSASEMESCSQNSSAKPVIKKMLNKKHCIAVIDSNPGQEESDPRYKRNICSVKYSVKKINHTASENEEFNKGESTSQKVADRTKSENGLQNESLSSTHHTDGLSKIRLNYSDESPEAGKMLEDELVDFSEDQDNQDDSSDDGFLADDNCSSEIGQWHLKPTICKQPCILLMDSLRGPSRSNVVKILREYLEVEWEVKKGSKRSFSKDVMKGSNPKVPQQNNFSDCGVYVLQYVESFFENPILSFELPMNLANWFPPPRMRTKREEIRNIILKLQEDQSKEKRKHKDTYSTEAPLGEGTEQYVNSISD

[13] = target: Metabotropic glutamate receptor 4 (Homo sapiens, UniProt Q14833); assay: Modulation of the Metabotropic Glutamate Receptor mGluR4: Potency at human mGluR4. Modulation of intracellular Ca2+ using Fluo-4, AM, in CHO expressing recombinant receptor [Related pubchem assays (depositor defined):AID2437, AID2807]; assay type: functional, cell-based
[14] = target: T5, Protein skinhead-1 (Caenorhabditis elegans, UniProt P34707); assay type: functional
T5 sequence (P34707 whole entry): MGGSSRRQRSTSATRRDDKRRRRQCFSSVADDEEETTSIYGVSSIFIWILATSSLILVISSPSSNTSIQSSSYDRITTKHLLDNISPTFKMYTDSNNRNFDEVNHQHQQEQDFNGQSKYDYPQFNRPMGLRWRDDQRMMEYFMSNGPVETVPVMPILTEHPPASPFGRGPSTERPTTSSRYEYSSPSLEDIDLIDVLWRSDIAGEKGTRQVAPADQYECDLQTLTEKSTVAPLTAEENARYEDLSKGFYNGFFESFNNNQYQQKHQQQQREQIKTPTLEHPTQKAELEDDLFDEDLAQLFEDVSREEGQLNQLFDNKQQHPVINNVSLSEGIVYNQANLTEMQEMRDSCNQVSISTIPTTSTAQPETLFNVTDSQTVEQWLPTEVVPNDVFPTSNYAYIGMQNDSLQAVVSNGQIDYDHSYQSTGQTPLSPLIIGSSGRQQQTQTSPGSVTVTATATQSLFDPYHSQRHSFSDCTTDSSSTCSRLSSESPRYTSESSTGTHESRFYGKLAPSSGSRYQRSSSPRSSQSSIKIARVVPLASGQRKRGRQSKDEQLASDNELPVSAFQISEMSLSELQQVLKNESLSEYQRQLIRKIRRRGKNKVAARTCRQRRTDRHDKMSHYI

[15] = target: T6, Caspase-3 (Homo sapiens, UniProt P42574); assay type: functional;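 also: Dose-response selectivity test against caspase-3 for candidate inhibitors of sentrin-specific proteases (SENPs)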
T6 sequence (P42574 whole entry): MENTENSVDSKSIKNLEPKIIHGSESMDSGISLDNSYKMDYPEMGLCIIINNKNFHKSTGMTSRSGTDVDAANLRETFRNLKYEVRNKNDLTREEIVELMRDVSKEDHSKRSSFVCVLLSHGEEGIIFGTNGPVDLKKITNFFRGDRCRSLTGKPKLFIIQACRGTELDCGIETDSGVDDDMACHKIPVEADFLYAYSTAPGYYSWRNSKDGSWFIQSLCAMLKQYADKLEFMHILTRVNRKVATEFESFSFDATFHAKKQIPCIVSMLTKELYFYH

[16] = target: T7, Sentrin-specific protease 7 (Homo sapiens, UniProt Q9BQF6); assay type: functional;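 also: Luminescence-based dose-response confirmation of ultra-high-throughput screening hits, measuring inhibition of SENP7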
T7 sequence (Q9BQF6 whole entry): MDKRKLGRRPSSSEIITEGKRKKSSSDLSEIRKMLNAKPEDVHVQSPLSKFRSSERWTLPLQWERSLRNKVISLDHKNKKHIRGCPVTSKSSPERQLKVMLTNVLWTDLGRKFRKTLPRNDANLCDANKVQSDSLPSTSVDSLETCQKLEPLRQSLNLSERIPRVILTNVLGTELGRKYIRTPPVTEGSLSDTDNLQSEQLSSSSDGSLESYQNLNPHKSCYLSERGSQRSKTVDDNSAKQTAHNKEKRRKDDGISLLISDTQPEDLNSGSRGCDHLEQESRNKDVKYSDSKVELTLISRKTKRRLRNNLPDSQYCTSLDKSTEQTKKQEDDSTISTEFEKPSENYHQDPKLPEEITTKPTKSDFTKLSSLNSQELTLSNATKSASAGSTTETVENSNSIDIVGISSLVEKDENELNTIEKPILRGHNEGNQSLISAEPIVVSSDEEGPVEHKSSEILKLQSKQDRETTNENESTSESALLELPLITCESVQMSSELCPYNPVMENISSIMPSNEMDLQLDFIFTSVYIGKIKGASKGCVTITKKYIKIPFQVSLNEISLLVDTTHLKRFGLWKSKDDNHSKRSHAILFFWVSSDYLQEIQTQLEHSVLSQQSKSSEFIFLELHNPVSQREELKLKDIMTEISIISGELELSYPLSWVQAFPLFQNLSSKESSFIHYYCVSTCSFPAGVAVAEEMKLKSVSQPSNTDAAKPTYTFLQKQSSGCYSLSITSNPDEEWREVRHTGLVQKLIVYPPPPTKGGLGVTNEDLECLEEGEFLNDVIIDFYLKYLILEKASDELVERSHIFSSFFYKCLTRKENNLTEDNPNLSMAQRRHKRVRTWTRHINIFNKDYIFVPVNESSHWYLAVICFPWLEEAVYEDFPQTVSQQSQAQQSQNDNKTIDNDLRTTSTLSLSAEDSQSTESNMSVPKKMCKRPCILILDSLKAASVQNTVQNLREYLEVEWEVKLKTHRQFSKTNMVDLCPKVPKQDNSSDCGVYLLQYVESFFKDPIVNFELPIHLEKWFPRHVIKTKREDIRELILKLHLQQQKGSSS

Sequence of Beta-galactosidase (Q8VNN2 whole entry): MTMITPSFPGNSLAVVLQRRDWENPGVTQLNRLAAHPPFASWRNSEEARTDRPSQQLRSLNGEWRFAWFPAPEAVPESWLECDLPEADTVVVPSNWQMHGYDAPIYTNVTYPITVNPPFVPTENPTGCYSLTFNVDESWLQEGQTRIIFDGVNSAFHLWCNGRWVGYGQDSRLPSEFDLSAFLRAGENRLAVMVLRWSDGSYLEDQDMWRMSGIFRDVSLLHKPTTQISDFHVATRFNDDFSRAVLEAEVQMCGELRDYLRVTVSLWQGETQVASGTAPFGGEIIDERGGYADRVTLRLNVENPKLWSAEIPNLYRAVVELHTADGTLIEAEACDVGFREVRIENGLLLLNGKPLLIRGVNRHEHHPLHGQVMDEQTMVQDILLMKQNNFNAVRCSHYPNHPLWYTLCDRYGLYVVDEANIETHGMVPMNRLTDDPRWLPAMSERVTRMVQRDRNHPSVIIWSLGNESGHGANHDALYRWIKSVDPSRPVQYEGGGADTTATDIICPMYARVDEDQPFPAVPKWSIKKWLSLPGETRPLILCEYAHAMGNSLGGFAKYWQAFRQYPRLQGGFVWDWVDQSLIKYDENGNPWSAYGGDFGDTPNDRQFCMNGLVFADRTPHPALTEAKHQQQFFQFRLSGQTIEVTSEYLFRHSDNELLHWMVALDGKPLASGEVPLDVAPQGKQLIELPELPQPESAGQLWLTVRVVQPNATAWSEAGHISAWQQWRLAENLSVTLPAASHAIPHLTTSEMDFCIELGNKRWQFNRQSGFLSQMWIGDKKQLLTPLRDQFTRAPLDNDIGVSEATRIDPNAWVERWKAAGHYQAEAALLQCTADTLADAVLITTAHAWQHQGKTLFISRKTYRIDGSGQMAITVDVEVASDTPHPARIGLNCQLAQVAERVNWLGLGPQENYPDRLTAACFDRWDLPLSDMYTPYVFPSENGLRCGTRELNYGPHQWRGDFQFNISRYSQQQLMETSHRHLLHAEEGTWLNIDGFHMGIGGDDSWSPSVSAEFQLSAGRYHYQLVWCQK
Sequence of Metabotropic glutamate receptor 4 (Homo sapiens, UniProt Q14833) (Q14833 whole entry): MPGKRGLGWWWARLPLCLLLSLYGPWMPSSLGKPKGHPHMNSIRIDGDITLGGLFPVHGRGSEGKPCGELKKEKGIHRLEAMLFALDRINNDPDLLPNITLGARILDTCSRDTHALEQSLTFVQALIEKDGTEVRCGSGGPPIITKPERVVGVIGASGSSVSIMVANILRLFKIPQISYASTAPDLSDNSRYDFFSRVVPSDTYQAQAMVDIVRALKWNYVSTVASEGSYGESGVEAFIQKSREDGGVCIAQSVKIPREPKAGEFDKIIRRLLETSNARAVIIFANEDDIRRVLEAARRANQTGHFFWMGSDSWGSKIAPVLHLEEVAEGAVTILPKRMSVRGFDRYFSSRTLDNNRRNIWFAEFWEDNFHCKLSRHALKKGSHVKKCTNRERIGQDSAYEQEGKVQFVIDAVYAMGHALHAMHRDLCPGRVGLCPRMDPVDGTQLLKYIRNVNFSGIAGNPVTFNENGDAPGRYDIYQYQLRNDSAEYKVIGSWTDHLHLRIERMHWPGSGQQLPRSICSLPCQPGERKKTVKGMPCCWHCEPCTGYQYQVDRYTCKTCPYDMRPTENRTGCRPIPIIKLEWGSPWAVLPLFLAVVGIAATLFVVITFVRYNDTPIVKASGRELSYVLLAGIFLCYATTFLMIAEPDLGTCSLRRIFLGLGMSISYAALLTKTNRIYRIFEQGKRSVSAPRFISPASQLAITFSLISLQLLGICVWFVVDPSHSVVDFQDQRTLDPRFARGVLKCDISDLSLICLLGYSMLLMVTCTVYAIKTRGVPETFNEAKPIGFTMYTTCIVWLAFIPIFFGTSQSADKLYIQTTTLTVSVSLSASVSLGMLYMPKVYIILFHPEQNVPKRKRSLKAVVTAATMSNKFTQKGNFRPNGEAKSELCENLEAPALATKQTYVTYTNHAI
Sequence of Neurotensin receptor type 1 (P30989 whole entry): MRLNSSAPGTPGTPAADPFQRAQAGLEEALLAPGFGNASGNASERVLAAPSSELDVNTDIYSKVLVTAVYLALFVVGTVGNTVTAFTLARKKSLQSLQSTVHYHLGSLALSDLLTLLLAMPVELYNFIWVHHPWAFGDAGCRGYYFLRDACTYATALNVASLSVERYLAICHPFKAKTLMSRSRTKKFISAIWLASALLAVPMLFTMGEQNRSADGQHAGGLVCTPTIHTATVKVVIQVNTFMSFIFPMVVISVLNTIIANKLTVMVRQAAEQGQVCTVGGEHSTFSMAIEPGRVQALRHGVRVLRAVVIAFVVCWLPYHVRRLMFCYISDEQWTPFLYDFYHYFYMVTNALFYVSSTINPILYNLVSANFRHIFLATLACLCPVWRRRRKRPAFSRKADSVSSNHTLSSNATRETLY
Sequence of Metabotropic glutamate receptor 4 (Rattus norvegicus, UniProt P31423) (P31423 whole entry): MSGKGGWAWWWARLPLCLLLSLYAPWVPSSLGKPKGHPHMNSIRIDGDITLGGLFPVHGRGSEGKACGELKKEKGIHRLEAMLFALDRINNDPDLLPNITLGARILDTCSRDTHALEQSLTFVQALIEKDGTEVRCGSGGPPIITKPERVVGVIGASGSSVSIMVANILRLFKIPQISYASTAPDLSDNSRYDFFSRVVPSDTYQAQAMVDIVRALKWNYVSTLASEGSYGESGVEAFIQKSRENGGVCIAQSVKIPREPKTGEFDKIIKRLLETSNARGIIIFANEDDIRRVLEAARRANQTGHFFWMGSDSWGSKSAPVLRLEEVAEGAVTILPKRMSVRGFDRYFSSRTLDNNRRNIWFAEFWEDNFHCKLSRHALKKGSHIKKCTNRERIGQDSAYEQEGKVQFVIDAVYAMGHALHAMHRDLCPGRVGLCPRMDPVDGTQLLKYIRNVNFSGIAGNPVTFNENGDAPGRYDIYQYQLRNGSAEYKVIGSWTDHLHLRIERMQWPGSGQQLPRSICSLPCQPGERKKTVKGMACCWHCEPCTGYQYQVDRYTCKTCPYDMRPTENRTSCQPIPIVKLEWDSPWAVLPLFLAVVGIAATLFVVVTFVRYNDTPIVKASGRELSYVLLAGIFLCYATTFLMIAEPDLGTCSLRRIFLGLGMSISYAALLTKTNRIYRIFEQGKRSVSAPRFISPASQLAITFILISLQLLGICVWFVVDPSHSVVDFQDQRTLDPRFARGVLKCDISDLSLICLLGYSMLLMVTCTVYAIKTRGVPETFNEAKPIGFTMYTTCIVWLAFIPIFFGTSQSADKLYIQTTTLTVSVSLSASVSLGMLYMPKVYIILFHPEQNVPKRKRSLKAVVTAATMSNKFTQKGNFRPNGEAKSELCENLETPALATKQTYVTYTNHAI

| SMILES | EC50 [1] | AC50 [2] | EC50 [3] | EC50 [4] | AC50 [5] | IC50 [6] | AC50 [7] | EC50 [8] | EC50 [9] | IC50 [10] | EC50 [11] | IC50 [12] | EC50 [13] | IC50 [14] | IC50 [15] | IC50 [16] |
| --- | --- | --- | --- | --- | --- | --- | --- | --- | --- | --- | --- | --- | --- | --- | --- | --- |
| CC(=O)OCCCNc1cc(Sc2ccc(C)cc2)c2nonc2c1[N+](=O)[O-] | > 350 µM (not active) | > 70 µM (inactive) | 5.83 µM (active) | > 40 µM (inactive) | 1.1 µM (active) | 1.56 µM (active) | 12.4 µM (active) | > 350 µM (not active) | > 195 µM (not active) | – | – | – | – | – | – | – |
| O=C(Nc1ccc(Cl)c(Cl)c1)c1ccco1 | – | – | – | – | – | – | – | – | – | 21.7 µM (active) | 3.58 µM (active) | 18.3 µM (active) | 4.54 µM (active) | 24.4 µM (active) | 17 µM (active) | 5.24 µM (active) |
